Data from patent publication US8461181B2, “Fused heterocyclic compound and use thereof” (Sumitomo Chemical Company, Ltd., priority 2009, dated 2013).

What was measured:
Format in all cases: in vivo
Aphis gossypii [1] = assay: Test Example 2: foot drench of cucumber seedling on urethane mat, Aphis gossypii; details: soil, 168 h, 5 ml drench at foot of cucumber seedling on urethane mat, inoculated one day after treatment, checked seven days after
Description: The formulations of the present active compounds (4), (5), (8), (9), (11), (12), (14), (15), (17), (20), (35) to (45), (48) to (51), (54) to (56), (206), (209) and (211) to (213) obtained by Formulation Example 5 were diluted with water so that the active ingredient concentration was 500 ppm, to prepare diluted solutions for test. Separately, a cucumber seedling (second true leaf spreading stage) planted on a urethane mat was drenched at its foot with each 5 ml of the diluted solutions, and one day after treatment, the cucumber leaf surface was inoculated with 30 Aphis gossypii (whole stage). Further seven days after, the number of insect of living Aphis gossypii […] on the leaves of this cucumber was checked, and the control value was calculated according to the following formula. Control value (%)={1-(Cb×Tai)/(Cai×Tb)}×100 Letters in the formula represent the following meanings. Cb: the number of insect before treatment on non-treated district Cai: the number of insect in observation on non-treated district Tb: the number of insect before treatment on treated district Tai: the number of insect in observation on treated district

Nilaparvata lugens [2] = assay: Test Example 7: foot drench of rice seedling, thirty first instar larvae of Nilaparvata lugens; details: soil, 144 h, 5 ml drench at foot of rice seedling, kept 7 days, thirty first instar larvae released, further 6 days
Description: The formulations of the present active compounds (11), (13) to (15), (17), (23), (26), (35) to (41), (43) to (45), (48) to (51), (54), (55), (209), (211) and (212) obtained by Formulation Example 5 were diluted with water so that the active ingredient concentration was 500 ppm, to prepare diluted solutions for test. Separately, a rice seedling (2 weeks after sowing, second leaf spreading stage) planted on a plastic cup was drenched at its foot with each 5 ml of the diluted solutions, and kept in a greenhouse of 25° C. for 7 days. Thirty first instar larvae of Nilaparvata lugens were released, and further kept in the greenhouse for 6 days. The number of insect of living Nilaparvata lugens […] on rice was checked, and the control value was calculated according to the following formula. Control value (%)={1-(Cb×Tai)/(Cai×Tb)}×100 Letters in the formula represent the following meanings. Cb: the number of insect before treatment on non-treated district Cai: the number of insect in observation on non-treated district Tb: the number of insect before treatment on treated district Tai: the number of insect in observation on treated district

Aphis gossypii [3] = assay: Test Example 4: foot drench of cucumber seedling in plastic cup, inoculation after 7 days, Aphis gossypii; details: soil, 144 h, 5 ml drench at foot of cucumber seedling in plastic cup, kept 7 days at 25° C., inoculated, further 6 days
Description: The formulations of the present active compounds (3) to (7), (17), (19), (20), (22), (29) to (31), (35) to (37), (39), (41) to (45), (47) to (56), (101), (106), (121) to (123), (128), (131), (137), (139), (143), (145), (147), (211) to (213), (216) and (217) obtained by Formulation Example 5 were diluted with water so that the active ingredient concentration was 500 ppm, to prepare diluted solutions for test. Separately, a cucumber seedling (second true leaf spreading stage) planted on a plastic cup was drenched at its foot with each 5 ml of the diluted solutions, and kept in a greenhouse of 25° C. for 7 days. The cucumber leaf surface was inoculated with 30 Aphis gossypii (whole stage), and further kept in the greenhouse for 6 days, then, the number of insect of living Aphis gossypii […] on the leaves of this cucumber was checked, and the control value was calculated according to the following formula. Control value (%)={1-(Cb×Tai)/(Cai×Tb)}×100 Letters in the formula represent the following meanings. Cb: the number of insect before treatment on non-treated district Cai: the number of insect in observation on non-treated district Tb: the number of insect before treatment on treated district Tai: the number of insect in observation on treated district

Nilaparvata lugens [4] = assay: Test Example 9: foot drench of rice seedling, twenty first instar larvae of Nilaparvata lugens; details: soil, 144 h, 5 ml drench at foot of rice seedling, kept 7 days, twenty first instar larvae released, further 6 days
Description: The formulations of the present active compounds (6), (7), (18), (22), (25), (30), (33), (46), (47), (53), (101) to (103), (106), (121) to (124), (126) to (128), (135), (139), (216) and (217) obtained by Formulation Example 5 were diluted with water so that the active ingredient concentration was 500 ppm, to prepare diluted solutions for test. Separately, a rice seedling (2 weeks after sowing, second leaf spreading stage) planted on a plastic cup was drenched at its foot with each 5 ml of the diluted solutions, and kept in a greenhouse of 25° C. for 7 days. Twenty first instar larvae of Nilaparvata lugens were released, and further kept in the greenhouse for 6 days, then, the number of insect of living Nilaparvata lugens […] on rice was checked, and the control value was calculated according to the following formula. Control value (%)={1-(Cb×Tai)/(Cai×Tb)}×100 Letters in the formula represent the following meanings. Cb: the number of insect before treatment on non-treated district Cai: the number of insect in observation on non-treated district Tb: the number of insect before treatment on treated district Tai: the number of insect in observation on treated district

Aphis gossypii [5] = assay: Test Example 3: root immersion of cucumber seedling, Aphis gossypii; details: 168 h, cucumber root part immersed in 5 ml, inoculated one day after treatment, checked seven days after
In short: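 Roots of washed cucumber seedlings (first true leaf stage) immersed in 500 ppm water-diluted formulation; 30 A. gossypii (whole stage) placed on leaves one day later. Living aphids counted seven days after, control value (%) = {1-(Cb×Tai)/(Cai×Tb)}×100 vs non-treated.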

Nilaparvata lugens [6] = assay: Test Example 8: spray on rice seedling, 20 first instar larvae of Nilaparvata lugens; details: 144 h, 10 ml sprayed on rice seedling, 20 first instar larvae released, 6 days at 25° C.
Description: The formulations of the present active compounds (6), (7), (18), (21), (24), (25), (28) to (30), (32), (46), (52), (101) to (103), (105) to (107), (111), (112), (115), (119) to (124), (126) to (130), (133) to (135), (139), (142), (144) to (146), (149) to (151), (153), (154), (216) and (217) obtained by Formulation Example 5 were diluted with water so that the active ingredient concentration was 500 ppm, to prepare spray solutions for test. Separately, on a rice seedling (2 weeks after sowing, second leaf spreading stage) planted on a plastic cup, the drug solutions for test prepared as described above were sprayed each in an amount of 10 ml. After drying of the drug solution sprayed on rice, 20 first instar larvae of Nilaparvata lugens were released, and kept in a greenhouse of 25° C. for 6 days. Thereafter, the number of Nilaparvata lugens […] on rice was checked, and the control value was calculated according to the following formula. Control value (%)={1-(Cb×Tai)/(Cai×Tb)}×100 Letters in the formula represent the following meanings. Cb: the number of insect before treatment on non-treated district Cai: the number of insect in observation on non-treated district Tb: the number of insect before treatment on treated district Tai: the number of insect in observation on treated district

Bemisia tabaci = assay: Test Example 5: spray on tomato seedling with Bemisia tabaci larvae; details: 168 h, 10 ml/cup sprayed on tomato seedling with hatching Bemisia tabaci larvae, 7 days at 25° C.
Description: The formulations of the present active compounds (1) to (5), (7) to (15), (17) to (21), (25), (28) to (45), (48) to (56), (101) to (103), (106), (107), (117), (118), (121) to (145), (147) to (151), (153) to (155), (204), (206), (208), (209), (211) to (213) and (216) to (221) obtained by Formulation Example 5 were diluted with water so that the active ingredient concentration was 500 ppm, to prepare spray solutions for test. Separately, on a tomato seedling planted on a plastic cup, Bemisia tabaci adult insects were released and allowed to lay eggs for about 24 hours. The tomato seedling was kept in a greenhouse […], and the above-described spray solutions for test were sprayed at a proportion of 10 ml/cup on the condition of hatching of larvae from the laid eggs, and kept in a greenhouse of 25° C. for 7 days. The number of living larvae on the tomato leaves was checked, and the control value was calculated according to the following formula. Control value (%)={1−(Cb×Tai)/(Cai×Tb)}×100 Letters in the formula represent the following meanings. Cb: the number of insect before treatment on non-treated district Cai: the number of insect in observation on non-treated district Tb: the number of insect before treatment on treated district Tai: the number of insect in observation on treated district

SMILES: CC(C)Oc1cnccc1-c1nc2cc(C(F)(F)F)ccc2n1C [present active compound 11, 2-(3-isopropoxypyridin-4-yl)-1-methyl-5-trifluoromethyl-1H-benzimidazole]
- pest or weed control at 500 ppm (Aphis gossypii [1]): ≥ 90%
- pest or weed control at 500 ppm (Nilaparvata lugens [2]): ≥ 90%

SMILES: CSc1cnccc1-c1nc2cc(C(F)(F)F)ccc2n1C [present active compound 17, 1-methyl-2-(3-methylthiopyridin-4-yl)-5-trifluoromethyl-1H-benzimidazole]
- pest or weed control at 500 ppm (Aphis gossypii [1]): ≥ 90%
- pest or weed control at 500 ppm (Aphis gossypii [3]): ≥ 90%
- pest or weed control at 500 ppm (Nilaparvata lugens [2]): ≥ 90%

SMILES: CC(C)Sc1cnccc1-c1nc2cc(C(F)(F)F)ccc2n1C [present active compound 23, 2-(3-isopropylthiopyridin-4-yl)-1-methyl-5-trifluoromethyl-1H-benzimidazole]
- pest or weed control at 500 ppm (Nilaparvata lugens [2]): ≥ 90%

SMILES: Cn1c(-c2cc[n+]([O-])cc2F)nc2cc(C(F)(F)F)ccc21 [present active compound 25, 2-(3-fluoro-1-oxypyridin-4-yl)-1-methyl-5-trifluoromethyl-1H-benzimidazole]
- pest or weed control at 500 ppm (Nilaparvata lugens [4]): ≥ 90%
- pest or weed control at 500 ppm (Aphis gossypii [5]): ≥ 90%
- pest or weed control at 500 ppm (Nilaparvata lugens [6]): ≥ 90%
- pest or weed control at 500 ppm (Bemisia tabaci): ≥ 90%

SMILES: Cn1c(-c2ccnc(F)c2)nc2cc(C(F)(F)F)ccc21 [present active compound 26, 2-(2-fluoropyridin-4-yl)-1-methyl-5-trifluoromethyl-1H-benzimidazole]
- pest or weed control at 500 ppm (Nilaparvata lugens [2]): ≥ 90%

SMILES: Cn1c(-c2ccncc2SCC(F)(F)F)nc2cc(C(F)(F)F)cnc21 [present active compound 54, 3-methyl-2-[3-(2,2,2-trifluoroethylthio)pyridin-4-yl]-6-trifluoromethyl-3H-imidazo[4,5-b]pyridine]
- pest or weed control at 500 ppm (Nilaparvata lugens [2]): ≥ 90%

SMILES: Cn1c(-c2cc[n+]([O-])cc2)nc2cc(C(F)(F)F)cnc21 [present active compound 55, 3-methyl-2-(1-oxypyridin-4-yl)-6-trifluoromethyl-3H-imidazo[4,5-b]pyridine]
- pest or weed control at 500 ppm (Nilaparvata lugens [2]): ≥ 90%

SMILES: COCCc1cnccc1-c1nc2cc(C(F)(F)F)cnc2n1C [present active compound 106]
- pest or weed control at 500 ppm (Aphis gossypii [3]): ≥ 90%
- pest or weed control at 500 ppm (Nilaparvata lugens [4]): ≥ 90%
- pest or weed control at 500 ppm (Bemisia tabaci): ≥ 90%

SMILES: Cn1c(-c2ccncc2SC(C)(C)C)nc2cc(C(F)(F)F)cnc21 [present active compound 107]
- pest or weed control at 500 ppm (Bemisia tabaci): ≥ 90%

SMILES: CNS(=O)(=O)c1cnccc1-c1nc2cc(C(F)(F)F)cnc2n1C [present active compound 117]
- pest or weed control at 500 ppm (Aphis gossypii [5]): ≥ 90%
- pest or weed control at 500 ppm (Bemisia tabaci): ≥ 90%

SMILES: Cn1c(-c2ccncc2C#N)nc2cc(C(F)(F)F)cnc21 [present active compound 118]
- pest or weed control at 500 ppm (Aphis gossypii [5]): ≥ 90%
- pest or weed control at 500 ppm (Bemisia tabaci): ≥ 90%

SMILES: CCn1c(-c2ccncc2)nc2ccc(C(F)(F)F)cc21 [present active compound 204, 1-ethyl-2-pyridin-4-yl-6-trifluoromethyl-1H-benzimidazole]
- pest or weed control at 500 ppm (Bemisia tabaci): ≥ 90%

SMILES: CCCCOc1cnccc1-c1nc2cc(C(F)(F)F)ccc2n1C [present active compound 206, 2-(3-butoxypyridin-4-yl-)-1-methyl-5-trifluoromethyl-1H-benzimidazole]
- pest or weed control at 500 ppm (Aphis gossypii [1]): ≥ 90%
- pest or weed control at 500 ppm (Bemisia tabaci): ≥ 90%

SMILES: C#Cc1cnccc1-c1nc2cc(C(F)(F)F)cnc2n1C [present active compound 211, 2-(3-ethynylpyridin-4-yl-)-3-methyl-6-trifluoromethyl-3H-imidazo[4,5-b]pyridine]
- pest or weed control at 500 ppm (Nilaparvata lugens [2]): ≥ 90%

SMILES: Cn1c(-c2ccncc2C(F)(F)F)nc2cc(C(F)(F)F)cnc21 [present active compound 212, 3-methyl-6-trifluoromethyl-2-(3-trifluoromethylpyridin-4-yl-)-3H-imidazo[4,5-b]pyridine]
- pest or weed control at 500 ppm (Nilaparvata lugens [2]): ≥ 90%
